Where a name gives a salt, the structure may show the parent alone.
Experiment: Solubility of the dye in pure water
Format: physicochemical
Conditions: pure water (ion exchanged water), 25° C.

solubility: 100 mg/mL
Compound: CC(C)(C)CC(C)(C)c1ccc(Oc2cc(Nc3ccc(S(=O)(=O)O)cc3)c3c4c(c(C(=O)c5ccccc5)c(=O)[nH]c24)-c2ccccc2C3=O)c(S(=O)(=O)O)c1 [Example M1, sodium salt of anthrapyridone disulfonic acid of Formula (1)]
